These results are taken from patent US20240252508A1, “Novel glucose uptake inhibitors for use in the treatment of cancer” (NOVELYEAST BV, priority 2021, published 2024).

The test system of experiment [1] is tps1Δ cells. The experiment in a line: Glu6P and Fru1,6bisP levels after glucose addition to tps1Δ cells. The class given is cell-based, S. cerevisiae. Here is the method: For measuring metabolite levels, cells were typically grown in Complete Synthetic medium. […] However, when comparing the effect of Warbicins on metabolite profiles of wild type and tps1Δ strains (FIG. 2f-k), cells were grown on 2% galactose. When grown to exponential phase, cells were harvested by centrifugation and washed twice with ice-cold 25 mM 2-(N-Morpholino)ethanesulfonic acid (MES) buffer, pH 6. Cells were suspended in Complete Synthetic medium without sugar at a concentration of 75 mg (wet weight)/mL followed by a temperature equilibration at 30° C. in a shaking water bath for 30 min. Depending on the experiment, a final concentration of 2.5 mM, 7.5 mM or 10 mM glucose was added to the cell suspension. Compounds were added 10 min prior to glucose addition. […]
Through endpoint measurement of the absorbance of NADH or NADPH at 340 nm, metabolite concentrations were calculated by applying Lambert's Law. Different metabolites were measured through the use of coupled enzymatic reactions. […] Depending on the measured metabolite, different co-factors and auxiliary enzymes were added. For measuring glucose-6-phosphate, 0.8 mg/ml NADP^+ was added to the assay buffer after which the baseline absorbance was measured. […] After stabilization of the OD340 spectra, ATP concentrations were measured by additionally adding 10 mM MgCl2 and 0.5 mM glucose to the assay buffer. […]

For experiment [2], the system named is A549 lung adenocarcinoma cells. Kind of experiment: A549 cell proliferation / growth inhibition. The class given is cell-based, human. To be noted: 50 μM compound, 1 mM glucose. A digest of the protocol: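 A549 growth screened in RPMI with 1 mM glucose, compounds at 50 μM; cell number from counts of Hoechst-stained nuclei after 3 days. Growth curves also followed by IncuCyte phase-contrast confluency over 3–5 days (1000–1500 cells/well), DMSO ≤0.1%, ≥4 technical repeats.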

The test system of experiment [3] is tps1Δ cells. Kind of experiment: Growth rescue of tps1Δ strain on glucose (growth curves, 2% galactose medium). The class given is cell-based, S. cerevisiae. A digest of the protocol: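 tps1Δ yeast pregrown in Complete Synthetic medium with 2% galactose, washed, resuspended to OD 0.1; compounds added 10 min before glucose. Growth followed as OD595 every 30 min at 30 °C in at least three technical replicates.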

For the compound `Cc1nc(SCC(N)=O)c2c3c(sc2n1)CCCC3` [55C], the “Glu6P and Fru1,6bisP hyperaccumulation after addition of 2.5 mM glucose” value with tps1Δ cells [1] was “did not prevent hyperaccumulation of sugar phosphates”. Besides, the “Selected from primary screen for growth inhibition of A549 cells at 50 μM” value in experiment [2] is on record as “No”. Further, the “Rescue of the tps1Δ strain on 2.5 mM glucose at 100 μM” value in the experiment on tps1Δ cells [3] (100 μM compound, 2.5 mM glucose) is reported as “No”. Further, the “Rescue of tps1Δ cells on 2.5 mM glucose” value with tps1Δ cells [3] (100 μM, 2% galactose + 2.5 mM glucose) is “highly active”.
